What all share (assay type): functional
What all share (conditions): read-out: ED50 (the source's name)

For assay [1], the system named is TE-671. The assay can be described thus: Cytotoxicity against human TE671 cells.
Assay [2] can be described thus: Cytotoxicity against human RPMI cells.
The test system of assay [3] is KB. Nature of the assay: Cytotoxicity against human KB cells.
Assay [4] has as its system A549. The assay can be described thus: Cytotoxicity against human A549 cells.
In assay [5] the test system is HCT-8. The assay can be described thus: Cytotoxicity against human HCT8 cells.
Assay [6] deals with P388. Nature of the assay: Cytotoxicity against mouse P388 cells.

≈ marks a conversion by molar mass, not a printed value. Bounds are passed on as bounds.

As to `COC(=O)[C@@]12OC[C@]34[C@H](OC(=O)C[C@@H]13)[C@H](OC(=O)C=C(C)C)[C@H]1C(C)=C(O[C@@H]3O[C@H](CO)[C@@H](O)[C@H](O)[C@H]3O)C(=O)C[C@]1(C)[C@H]4[C@@H](O)[C@@H]2O` [BRUCEOSIDE C], the EC50 in assay [1] is 0.29 µg/mL (≈ 0.425 µM); in assay [2], below 0.1 µg/mL; in assay [3] it was below 0.1 µg/mL; in assay [4], 0.44 µg/mL (≈ 0.645 µM); in assay [5], 4.51 µg/mL (≈ 6.61 µM); in assay [6] it was 5.11 µg/mL (≈ 7.49 µM).

(Values after ChEMBL document CHEMBL1159021, “Antitumor agents, 127. Bruceoside C, a new cytotoxic quassinoid glucoside, and related compounds from Brucea javanica” (1992).)
